Source: US4808711A, “Cephalosporin derivatives” (Sankei Pharmaceutical Co., Ltd., priority 1985, dated 1989)
Values after ≈ are worked out from the molar mass of the structure shown.

Columns and labels:
Assay type in all cases: cell-based
S. aureus TASAKI = experiment: MIC, S. aureus TASAKI; conditions: Staphylococcus aureus; S. aureus TASAKI; standard method of Japanese Chemotherapy Association; read-out: MIC
Description: (§1) The minimum inhibition concentrations (MIC) of the compounds obtained by the present invention were measured according to the standard method of Japanese Chemotherapy Association.

S. aureus 209P JC-1 = experiment: MIC, S. aureus 209P JC-1; conditions: Staphylococcus aureus; S. aureus 209P JC-1; read-out: MIC
Description: as §1

S. aureus ATCC25923 = experiment: MIC, S. aureus ATCC25923; conditions: Staphylococcus aureus; S. aureus ATCC25923; read-out: MIC
Description: as §1

S. aureus Smith = experiment: MIC, S. aureus Smith; conditions: Staphylococcus aureus, read-out: MIC
Description: as §1

S. epidermidis ATCC14990 = experiment: MIC, S. epidermidis ATCC14990; conditions: Staphylococcus epidermidis, read-out: MIC
Description: as §1

S. faecalis IFO3826 = experiment: MIC, S. faecalis IFO3826; conditions: Enterococcus faecalis, read-out: MIC
Description: as §1

B. subtilis ATCC6633 = experiment: MIC, B. subtilis ATCC6633; conditions: Bacillus subtilis; B. subtilis ATCC6633; read-out: MIC
Description: as §1

S. anatum 677-69 = experiment: MIC, S. anatum 677-69; conditions: Salmonella enterica, 67769, read-out: MIC
Description: as §1

S. newport 563 = experiment: MIC, S. newport 563; conditions: Salmonella enterica, read-out: MIC
Description: as §1

S. paratyphi A 144-12-93 = experiment: MIC, S. paratyphi A 144-12-93; conditions: Salmonella enterica, PARATYPHI
Description: as §1

S. paratyphi B = experiment: MIC, S. paratyphi B; conditions: Salmonella enterica, PARATYPHI
Description: as §1

S. paratyphi C 33-76 = experiment: MIC, S. paratyphi C 33-76; conditions: Salmonella enterica, PARATYPHI
Description: as §1

S. typhi 1099-77 = experiment: MIC, S. typhi 1099-77; conditions: Salmonella enterica, TYPHI
Description: as §1

S. typhimurium ATCC13311 = experiment: MIC, S. typhimurium ATCC13311; conditions: Salmonella enterica, read-out: MIC
Description: as §1

S. typhimurium IFO 12529 = experiment: MIC, S. typhimurium IFO 12529; conditions: Salmonella enterica, read-out: MIC
Description: as §1

S. boyadii CDC 2064-59 = experiment: MIC, S. boyadii CDC 2064-59
Description: as §1

S. dysenteriae 4379-60 = experiment: MIC, S. dysenteriae 4379-60; conditions: Shigella dysenteriae, 437960
Description: as §1

[1] = tested on: S. flexneri 2a CDC 4807-62; experiment: MIC, S. flexneri 2a CDC 4807-62; conditions: Shigella flexneri, read-out: MIC
Description: as §1

S. flexneri Y NCTC 9730 = experiment: MIC, S. flexneri Y NCTC 9730; conditions: Shigella flexneri, NCTC9730, read-out: MIC
Description: as §1

S. sonnei SH72-415 = experiment: MIC, S. sonnei SH72-415; conditions: Shigella sonnei, SH72415, read-out: MIC
Description: as §1

E. coli ATCC25922 = experiment: MIC, E. coli ATCC25922; conditions: Escherichia coli, read-out: MIC
Description: as §1

E. coli NIHJ JC-2 = experiment: MIC, E. coli NIHJ JC-2; conditions: Escherichia coli, NIHJJC2, read-out: MIC
Description: as §1

C. freundii IFO12681 = experiment: MIC, C. freundii IFO12681; conditions: Citrobacter freundii, read-out: MIC
Description: as §1

S. marcescens IFO12648 = experiment: MIC, S. marcescens IFO12648; conditions: Serratia marcescens, read-out: MIC
Description: as §1

E. cloacae ATCC13047 = experiment: MIC, E. cloacae ATCC13047; conditions: Enterobacter cloacae
Description: as §1

K. pneumoniae ATCC27736 = experiment: MIC, K. pneumoniae ATCC27736; conditions: Klebsiella pneumoniae, read-out: MIC
Description: as §1

P. mirabilis IFO3849 = experiment: MIC, P. mirabilis IFO3849; conditions: Proteus mirabilis, read-out: MIC
Description: as §1

P. rettgeri ATCC14505 = experiment: MIC, P. rettgeri ATCC14505; conditions: Providencia rettgeri, read-out: MIC
Description: as §1

P. vulgaris ATCC6380 = experiment: MIC, P. vulgaris ATCC6380; conditions: Proteus vulgaris, read-out: MIC
Description: as §1

P. vulgaris ATCC6398 = experiment: MIC, P. vulgaris ATCC6398; conditions: Proteus vulgaris, read-out: MIC
Description: as §1

P. aeruginosa ATCC9721 = experiment: MIC, P. aeruginosa ATCC9721; conditions: Pseudomonas aeruginosa; P. aeruginosa ATCC9721; read-out: MIC
Description: as §1

P. cepacia ATCC25416 = experiment: MIC, P. cepacia ATCC25416; conditions: Burkholderia cepacia, read-out: MIC
Description: as §1

P. maltophilia ATCC13637 = experiment: MIC, P. maltophilia ATCC13637; conditions: Stenotrophomonas maltophilia
Description: as §1

P. putida ATCC12633 = experiment: MIC, P. putida ATCC12633; conditions: Pseudomonas putida
Description: as §1

P. fluorescens ATCC13525 = experiment: MIC, P. fluorescens ATCC13525; conditions: Pseudomonas fluorescens, read-out: MIC
Description: as §1

E. Coli GN5482 = experiment: MIC, E. Coli GN5482; conditions: Escherichia coli
Description: as §1

E. cloacae GN7471 = experiment: MIC, E. cloacae GN7471; conditions: Enterobacter cloacae
Description: as §1

C. freundii GN7391 = experiment: MIC, C. freundii GN7391; conditions: Citrobacter freundii
Description: as §1

S. marcescens GN10851 = experiment: MIC, S. marcescens GN10851; conditions: Serratia marcescens
Description: as §1

P. rettgeri GN4430 = experiment: MIC, P. rettgeri GN4430; conditions: Providencia rettgeri
Description: as §1

P. morganii GN5407 = experiment: MIC, P. morganii GN5407; conditions: Morganella morganii
Description: as §1

P. vulgaris GN7919 = experiment: MIC, P. vulgaris GN7919; conditions: Proteus vulgaris
Description: as §1

P. aeruginosa GN10 = experiment: MIC, P. aeruginosa GN10; conditions: Pseudomonas aeruginosa
Description: as §1

E. coli W3630/Rms212 = experiment: MIC, E. coli W3630/Rms212; conditions: Escherichia coli
Description: as §1

E. coli W3630/Rms213 = experiment: MIC, E. coli W3630/Rms213; conditions: Escherichia coli
Description: as §1

E. coli W3630/Rte16 = experiment: MIC, E. coli W3630/Rte16; conditions: Escherichia coli
Description: as §1

Molecule `Cc1nnc(SCC2=C(C(=O)O)N3C(=O)C(NC(=O)C(=NOCC(=O)NNC(=O)c4ccc(O)c(O)c4)c4csc(N)n4)C3SC2)s1` (stereo not shown) [Example 59] has an MIC (S. aureus TASAKI) of 1.56 mg/L (≈ 2.16 µM), an MIC (S. aureus 209P JC-1) of 0.39 mg/L (≈ 0.54 µM) and an MIC (S. aureus ATCC25923) of 0.78 mg/L (≈ 1.08 µM). The MIC (S. aureus Smith) was 0.78 mg/L (≈ 1.08 µM), the MIC (S. epidermidis ATCC14990) was 0.39 mg/L (≈ 0.54 µM) and the MIC (S. faecalis IFO3826) was > 100 mg/L. It also gave an MIC (B. subtilis ATCC6633) of 0.39 mg/L (≈ 0.54 µM), an MIC (S. anatum 677-69) of 0.025 mg/L (≈ 0.0346 µM) and an MIC (S. newport 563) of 0.05 mg/L (≈ 0.0693 µM). It also gave an MIC (S. paratyphi A 144-12-93) of 0.025 mg/L (≈ 0.0346 µM), an MIC (S. paratyphi B) of 0.012 mg/L (≈ 0.0166 µM) and an MIC (S. paratyphi C 33-76) of 0.012 mg/L (≈ 0.0166 µM). For the same molecule, the MIC (S. typhi 1099-77) was ≤ 0.006 mg/L, the MIC (S. typhimurium ATCC13311) was 0.1 mg/L (≈ 0.139 µM) and the MIC (S. typhimurium IFO 12529) was 0.1 mg/L (≈ 0.139 µM). The MIC (S. boyadii CDC 2064-59) was 0.39 mg/L (≈ 0.54 µM), the MIC (S. dysenteriae 4379-60) was 0.05 mg/L (≈ 0.0693 µM) and the MIC [1] was 0.2 mg/L (≈ 0.277 µM). For the same molecule, the MIC (S. flexneri Y NCTC 9730) was 0.78 mg/L (≈ 1.08 µM), the MIC (S. sonnei SH72-415) was 0.05 mg/L (≈ 0.0693 µM) and the MIC (E. coli ATCC25922) was 0.1 mg/L (≈ 0.139 µM). The MIC (E. coli NIHJ JC-2) was 0.39 mg/L (≈ 0.54 µM), the MIC (C. freundii IFO12681) was 0.78 mg/L (≈ 1.08 µM) and the MIC (S. marcescens IFO12648) was 0.39 mg/L (≈ 0.54 µM). The MIC (E. cloacae ATCC13047) was 1.56 mg/L (≈ 2.16 µM), the MIC (K. pneumoniae ATCC27736) was 0.012 mg/L (≈ 0.0166 µM) and the MIC (P. mirabilis IFO3849) was 0.39 mg/L (≈ 0.54 µM). It also gave an MIC (P. rettgeri ATCC14505) of 0.78 mg/L (≈ 1.08 µM), an MIC (P. vulgaris ATCC6380) of 0.39 mg/L (≈ 0.54 µM) and an MIC (P. vulgaris ATCC6398) of 0.05 mg/L (≈ 0.0693 µM). It also gave an MIC (P. aeruginosa ATCC9721) of 0.1 mg/L (≈ 0.139 µM), an MIC (P. cepacia ATCC25416) of 0.39 mg/L (≈ 0.54 µM) and an MIC (P. maltophilia ATCC13637) of 0.78 mg/L (≈ 1.08 µM). The MIC (P. putida ATCC12633) was 0.78 mg/L (≈ 1.08 µM) and the MIC (P. fluorescens ATCC13525) was 12.5 mg/L (≈ 17.3 µM).

`CC(=NNC(=O)NC(C(=O)NC1C(=O)N2C(C(=O)O)=C(CSc3nncs3)CSC12)c1csc(N)n1)c1cccc(O)c1` (stereo not shown) [Example 104] gave an MIC (E. Coli GN5482) of 0.78 mg/L (≈ 1.18 µM), an MIC (E. cloacae GN7471) of 3.13 mg/L (≈ 4.73 µM) and an MIC (C. freundii GN7391) of 100 mg/L (≈ 151 µM). The MIC (S. marcescens GN10851) was 100 mg/L (≈ 151 µM), the MIC (P. rettgeri GN4430) was 0.2 mg/L (≈ 0.302 µM) and the MIC (P. morganii GN5407) was 0.39 mg/L (≈ 0.589 µM). The MIC (P. vulgaris GN7919) was 50 mg/L (≈ 75.6 µM), the MIC (P. aeruginosa GN10) was 6.25 mg/L (≈ 9.44 µM) and the MIC (E. coli W3630/Rms212) was 0.39 mg/L (≈ 0.589 µM). It also gave an MIC (E. coli W3630/Rms213) of 0.1 mg/L (≈ 0.151 µM) and an MIC (E. coli W3630/Rte16) of 0.2 mg/L (≈ 0.302 µM).
